Here are results for 15 compounds from patent US6124078A, “Photo-decoloring dye, a binder resin composition containing the same and photo-recording material” (Konica Corporation, priority 1998, dated 2000).

What all share (type): physicochemical
The nature of data set [1]: Solubility of dye in binder resin composition (polyvinyl butyral / methyl ethyl ketone), precipitation after a day at 15° C. The following applies: binder resin composition: polyvinyl butyral resin (Esrex BX-1) 100 mg, methyl ethyl ketone 3.0 ml; stood a day at 15° C. shielded from light. Here is the method:
Mixing the following raw materials, a binder resin composition containing the photo-decoloring dye was prepared so as to obtain sample 3-1.
Photo-decoloring dye 7 0.3 mmol
Polyvinyl butyral resin (Esrex BX-1)
Methyl ethyl ketone 3.0 ml
Samples 3-2 to 3-12 were obtained in the same way in which sample 3-1 was obtained except replacing the photo-decoloring dye 7 by the following dyes described later. Solubility was evaluated by varying addition amount of each dye. The dyes except for comparative dyes show the photo-decoloring dyes according to the invention. The chemical structures of the comparative dyes A and B (these dyes are used in example 5) are shown below.
After preparing binder resin compositions in which addition amount of the photo-decoloring dyes was increased in serial turn, said binder resin compositions were aloowed to stand under the condition of shielding a light for a day at 15° C. When slight precipitation of the photo-decoloring dyes in said binder resin compositions was observed, the solubility of said photo-decoloring dyes was evaluated as unacceptable.
The solubility of the photo-decoloring dyes was evaluated based on the following criteria in response to the addition amount of said photo-decoloring dyes.
4: Precipitation was not observed in an addition amount of not less than 0.9 mmol.

Data set [2] in a line: Storage stability of photo-recording material (60° C., 200 hours, light-shielded). The conditions noted are these: (density after storage/initial density)×100, packed with black paper. The text has this:
The binder resin composition containing the photo-decoloring dye used for making sample 3-1 was coated on a polyethylenenaphthalate base having thickness of 4.0 μm by using a wire bar in a coating amount of 2.5 g/m^2 after drying so as to obtain a photo-recording material consisting of a photo-decoloring layer on the polyethylenenaphthalate film. On a back side of said polyethylenenaphthalate base was coated a nitrocellulose layer containing a silicone modified urethane resin (SP-2105, produced by Dainichiseika Co., Ltd.) as a sticking-preventing layer. Thus obtained sample is termed sample 4-1.
By replacing the photo-decoloring dye 7 used in sample 4-1 by such photo-decoloring dyes as described later, sample 4-2 to 4-16 were obtained. Both photo-decoloring ability and storage stability of these dyes were evaluated.
Photo-shielded samples by packing them with black paper were allowed to stand at 60° C. in a thermostatic oven for 200 hours. Storage stability was indicated as follows.
Storage stability=(density after storage/initial density)×100 (%)

Data set [3] can be described thus: Absorption maximum and absorption coefficient in ethyl acetate.

For `CCCCc1nnc2n1N=C(C(C)(C)C)C2=Nc1ccc(O)cc1` [A], in data set [1], the Solubility is listed as 2 (Slight precipitation was observed in an addition amount of not less than 0.3 to less than 0.6 mmol.). Moreover, the Storage stability in data set [2] came to 18%.

For `CCCCc1nnc2c(=Cc3cc(Cl)c(O)c(Cl)c3)c(C(C)(C)C)nn12` [B], the Solubility in data set [1] is 2 (Slight precipitation was observed in an addition amount of not less than 0.3 to less than 0.6 mmol.). In addition, the Storage stability in data set [2] turned out to be 20%.

The compound `CCN(CC)c1ccc(N=C(C(C)=O)C(=O)Nc2ccccc2)c(C)c1` [C] displayed a Storage stability in data set [2] of 95%.

Compound `CCN(CC)c1ccc(N=C2C(=O)N(c3ccccc3)N=C2C)cc1` [D] registered a Storage stability in data set [2] of 80%.

In data set [2], `CCN(CC)c1ccc(N=C2C=CC(=O)c3ccccc32)cc1` [E] registered a Storage stability of 85%.

In data set [2], `CN1/C(=C\C=C\C2=[N+](C)c3ccccc3C2(C)C)C(C)(C)c2ccccc21` [F] had a Storage stability of 15%.

Regarding `CCCCCCCCCCCCS(=O)(=O)CCCc1nnc2n1N=C(C(C)(C)C)C2=Nc1cc(Cl)c(O)c(Cl)c1` [compound 7], the Solubility in data set [1] is given as 4 (Precipitation was not observed in an addition amount of not less than 0.9 mmol.). Moreover, the Storage stability in data set [2] was 88%. In data set [3], this compound returned a εmax of 93700 and a λmax of 556 nm.

Take `CCC(Oc1ccc(C(C)(C)CC)cc1C(C)(C)CC)C(=O)NCCC(C)c1nnc2n1N=C(C(C)(C)C)C2=Nc1cc(Cl)c(O)c(Cl)c1` (stereo not drawn) [compound 11]: the Solubility in data set [1] is given as 4 (Precipitation was not observed in an addition amount of not less than 0.9 mmol.). In data set [2], this compound registered a Storage stability of 80%.

Turning to `CCCCCCCCCCCCOc1ccc(S(=O)(=O)NCC(C)(C)c2nnc3n2N=C(C(C)(C)C)C3=Nc2cc(Cl)c(O)c(Cl)c2)cc1` [compound 13], in data set [1], the Solubility is recorded as 3 (Slight precipitation was observed in an addition amount of not less than 0.6 to less than 0.9 mmol.). The Storage stability in data set [2] was 75%.

Consider `CCCCCCCCCCCCC(Oc1ccc(OC(C)=O)c(C(C)(C)C)c1)C(=O)NCCc1nnc2n1N=C(C)C2=Nc1cc(Cl)c(O)c(Cl)c1` (stereo not drawn) [compound 17], for which, in data set [1], the Solubility is 4 (Precipitation was not observed in an addition amount of not less than 0.9 mmol.). Besides, the Storage stability in data set [2] is reported as 85%.

For `CCCCC(Oc1ccc(C(C)(C)CC)cc1C(C)(C)CC)C(=O)Nc1ccc2nc3n(c2c1)N=C(C)C3=Nc1cc(Cl)c(O)c(Cl)c1` (stereo not drawn) [compound 32], in data set [1], the Solubility is reported as 3 (Slight precipitation was observed in an addition amount of not less than 0.6 to less than 0.9 mmol.). The Storage stability in data set [2] stood at 90%.

For the compound `CCC(C)(C)c1ccc(OCC(=O)Nc2ccnc(-c3cnc4n3N=C(C(C)(C)C)C4=Nc3cc(Cl)c(O)c(Cl)c3)c2)c(C(C)(C)CC)c1` [compound 33], the Solubility in data set [1] is 4 (Precipitation was not observed in an addition amount of not less than 0.9 mmol.). The compound also yielded a Storage stability in data set [2] of 77%.

For `CCCCCCCCCCCCS(=O)(=O)NCCc1nc2c(=Cc3cc(Cl)c(O)c(Cl)c3)c(C(C)(C)C)nn2n1` [compound 47], the Solubility in data set [1] is 4 (Precipitation was not observed in an addition amount of not less than 0.9 mmol.). Further, the Storage stability in data set [2] is given as 82%.

As for `CCCCCCCCCCCCS(=O)(=O)CCCc1nnc2c(=Cc3cc(Cl)c(O)c(Cl)c3)c(C(C)(C)C)nn12` [compound 58], the Solubility in data set [1] was 4 (Precipitation was not observed in an addition amount of not less than 0.9 mmol.). In data set [2], this compound showed a Storage stability of 80%. Besides, in data set [3], the εmax was found to be 105300 and the λmax is recorded as 540 nm.

Regarding `CCCCCCCCCCCCS(=O)(=O)CCCc1nnc2c(=Cc3cc(Cl)c(O)c(Cl)c3)c(C(C)(C)C)nn12` [compound 78], in data set [3], the εmax was found to be 94800 and the λmax is recorded as 543 nm.
